Experimental data reported in patent US20240368135A1 (VERTEX PHARMACEUTICALS INCORPORATED, priority 2021, published 2024).

Target: human NaV 1.8 (Homo sapiens, UniProt Q9Y5Y9)
Assay: E-VIPR assay detecting and measuring NaV inhibition properties
Type: cell-based
Settings: HEK cells expressing truncated human NaV 1.8; no human serum; read-out: IC50 in the E-VIPR Assay
Procedure, shortened: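 HEK cells expressing truncated, fully active human NaV1.8, with KIR2.1 BacMam co-transduction, were loaded with CC2-DMPE/DiSBAC6(3) voltage-sensing dyes for 20 min at room temperature. Compounds were tested in 11-point 3-fold dilutions (300 nM top final), optionally with 25% human serum, under electrical stimulation with FRET read-out.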

Chain of human NaV 1.8 (Q9Y5Y9 126-399 limits assumed): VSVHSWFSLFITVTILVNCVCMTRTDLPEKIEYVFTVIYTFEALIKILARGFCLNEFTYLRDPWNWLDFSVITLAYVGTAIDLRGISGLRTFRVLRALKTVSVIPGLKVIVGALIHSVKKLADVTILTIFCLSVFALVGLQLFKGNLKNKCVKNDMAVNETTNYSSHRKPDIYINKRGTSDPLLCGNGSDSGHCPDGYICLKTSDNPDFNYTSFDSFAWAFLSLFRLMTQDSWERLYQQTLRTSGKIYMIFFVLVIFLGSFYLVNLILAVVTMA
Chain of human NaV 1.8 (Q9Y5Y9 660-890 limits assumed): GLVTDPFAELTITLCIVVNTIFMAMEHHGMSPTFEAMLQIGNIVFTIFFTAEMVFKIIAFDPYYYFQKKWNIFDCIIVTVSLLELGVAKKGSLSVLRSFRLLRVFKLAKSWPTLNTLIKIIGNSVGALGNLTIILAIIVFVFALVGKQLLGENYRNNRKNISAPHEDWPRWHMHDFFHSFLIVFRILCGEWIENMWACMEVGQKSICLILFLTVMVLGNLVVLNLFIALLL
Chain of human NaV 1.8 (Q9Y5Y9 1148-1722 limits assumed): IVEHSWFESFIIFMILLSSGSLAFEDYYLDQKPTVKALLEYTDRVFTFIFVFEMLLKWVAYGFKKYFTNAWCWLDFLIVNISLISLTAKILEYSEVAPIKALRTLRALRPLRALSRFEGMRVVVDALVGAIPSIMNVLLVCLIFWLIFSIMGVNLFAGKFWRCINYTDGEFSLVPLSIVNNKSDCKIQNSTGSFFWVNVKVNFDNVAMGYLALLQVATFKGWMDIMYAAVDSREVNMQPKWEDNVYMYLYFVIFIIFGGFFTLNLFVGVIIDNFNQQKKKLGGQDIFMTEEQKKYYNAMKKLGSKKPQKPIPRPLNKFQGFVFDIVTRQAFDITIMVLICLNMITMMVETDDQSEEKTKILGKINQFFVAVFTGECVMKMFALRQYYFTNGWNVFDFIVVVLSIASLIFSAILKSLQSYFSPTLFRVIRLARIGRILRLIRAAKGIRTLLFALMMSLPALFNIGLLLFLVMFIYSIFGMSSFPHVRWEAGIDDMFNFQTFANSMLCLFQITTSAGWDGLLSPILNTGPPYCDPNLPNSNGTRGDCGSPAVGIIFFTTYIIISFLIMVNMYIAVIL

| SMILES | IC50 [µM] |
| --- | --- |
| COc1c([C@H]2[C@H](C(=O)Nc3ccnc(N4C(=O)CN(C)C[C@@H]4CO)c3)O[C@@](C)(C(F)(F)F)[C@H]2C)ccc(F)c1F [Compound 511, (2R,3S,4S,5R)-3-(3,4-difluoro-2-methoxyphenyl)-N-(2-((R)-2-(hydroxymethyl)-4-methyl-6-oxopiperazin-1-yl)pyridin-4-yl)-4,5-dimethyl-5-(trifluoromethyl)tetrahydrofuran-2-carboxamide] | < 0.01 |
| COc1c([C@H]2[C@H](C(=O)Nc3ccnc(N4C(=O)CN(C)C[C@H]4CO)c3)O[C@@](C)(C(F)(F)F)[C@H]2C)ccc(F)c1F [Compound 512, (2R,3S,4S,5R)-3-(3,4-difluoro-2-methoxyphenyl)-N-(2-((S)-2-(hydroxymethyl)-4-methyl-6-oxopiperazin-1-yl)pyridin-4-yl)-4,5-dimethyl-5-(trifluoromethyl)tetrahydrofuran-2-carboxamide] | < 0.01 |
| COc1c([C@H]2[C@H](C(=O)Nc3cc(N4C(=O)CN(C)C[C@H]4C)ncn3)O[C@@](C)(C(F)(F)F)[C@H]2C)ccc(F)c1F [Compound 513] | 0.01 to 0.1 |
| C[C@H]1[C@@H](c2ccc(F)c(F)c2OC(F)F)[C@H](C(=O)Nc2ccnc(N3CCNCC3=O)c2)O[C@@]1(C)C(F)(F)F [Compound 514, (2R,3S,4S,5R)-3-(2-(difluoromethoxy)-3,4-difluorophenyl)-4,5-dimethyl-N-(2-(2-oxopiperazin-1-yl)pyridin-4-yl)-5-(trifluoromethyl)tetrahydrofuran-2-carboxamide] | 0.01 to 0.1 |
| [2H]C([2H])([2H])Oc1c([C@H]2[C@H](C(=O)Nc3ccnc(N4CCNCC4=O)c3)O[C@@](C)(C(F)(F)F)[C@H]2C)ccc(F)c1F [Compound 515, (2R,3S,4S,5R)-3-[3,4-difluoro-2-(trideuteriomethoxy)phenyl]-4,5-dimethyl-N-[2-(2-oxopiperazin-1-yl)-4-pyridyl]-5-(trifluoromethyl)tetrahydrofuran-2-carboxamide] | 0.01 to 0.1 |
| C[C@H]1[C@@H](c2ccc(F)c(F)c2OC(F)F)[C@H](C(=O)Nc2ccnc(N3CCN(C)CC3=O)c2)O[C@@]1(C)C(F)(F)F [Compound 516, (2R,3S,4S,5R)-3-[2-(difluoromethoxy)-3,4-difluoro-phenyl]-4,5-dimethyl-N-[2-(4-methyl-2-oxo-piperazin-1-yl)-4-pyridyl]-5-(trifluoromethyl)tetrahydrofuran-2-carboxamide] | < 0.01 |
| C[C@@H]1CN(C)CC(=O)N1c1cc(NC(=O)[C@@H]2O[C@@](C)(C(F)(F)F)[C@@H](C)[C@H]2c2ccc(F)c(F)c2OC(F)F)ccn1 [Compound 517, (2R,3S,4S,5R)-3-[2-(difluoromethoxy)-3,4-difluoro-phenyl]-N-[2-[(2R)-2,4-dimethyl-6-oxo-piperazin-1-yl]-4-pyridyl]-4,5-dimethyl-5-(trifluoromethyl)tetrahydrofuran-2-carboxamide] | < 0.01 |
| [2H]C([2H])([2H])Oc1c([C@H]2[C@H](C(=O)Nc3ccnc(N4CCN(C)CC4=O)c3)O[C@@](C)(C(F)(F)F)[C@H]2C)ccc(F)c1F [Compound 518, (2R,3S,4S,5R)-3-(3,4-difluoro-2-(methoxy-d3)phenyl)-4,5-dimethyl-N-(2-(4-methyl-2-oxopiperazin-1-yl)pyridin-4-yl)-5-(trifluoromethyl)tetrahydrofuran-2-carboxamide] | < 0.01 |
| [2H]C([2H])([2H])Oc1c([C@H]2[C@H](C(=O)Nc3ccnc(N4C(=O)CN(C)C[C@H]4C)c3)O[C@@](C)(C(F)(F)F)[C@H]2C)ccc(F)c1F [Compound 519, (2R,3S,4S,5R)-3-[3,4-difluoro-2-(trideuteriomethoxy)phenyl]-N-[2-[(2R)-2,4-dimethyl-6-oxo-piperazin-1-yl]-4-pyridyl]-4,5-dimethyl-5-(trifluoromethyl)tetrahydrofuran-2-carboxamide] | < 0.01 |
| COc1c([C@H]2[C@H](C(=O)Nc3ccnc(N4CCC[C@@H]4CO)c3)O[C@@](C)(C(F)(F)F)[C@H]2C)ccc(F)c1F [Compound 520, (2R,3S,4S,5R)-3-(3,4-difluoro-2-methoxy-phenyl)-N-[2-[(2R)-2-(hydroxymethyl)pyrrolidin-1-yl]-4-pyridyl]-4,5-dimethyl-5-(trifluoromethyl)tetrahydrofuran-2-carboxamide] | 0.01 to 0.1 |
| COc1c([C@H]2[C@H](C(=O)Nc3ccnc(N(C)CCO)c3)O[C@@](C)(C(F)(F)F)[C@H]2C)ccc(F)c1F [Compound 521, (2R,3S,4S,5R)-3-(3,4-difluoro-2-methoxy-phenyl)-N-[2-[2-hydroxyethyl(methyl)amino]-4-pyridyl]-4,5-dimethyl-5-(trifluoromethyl)tetrahydrofuran-2-carboxamide] | 0.01 to 0.1 |
| COc1c([C@H]2[C@H](C(=O)Nc3ccnc(N(C)C(=O)CN(C)C)c3)O[C@@](C)(C(F)(F)F)[C@H]2C)ccc(F)c1F [Compound 522, (2R,3S,4S,5R)-3-(3,4-difluoro-2-methoxy-phenyl)-N-[2-[[2-(dimethylamino)acetyl]-methyl-amino]-4-pyridyl]-4,5-dimethyl-5-(trifluoromethyl)tetrahydrofuran-2-carboxamide] | < 0.01 |
| COc1c([C@H]2[C@H](C(=O)Nc3ccc(N)nc3)O[C@@](C)(C(F)(F)F)[C@H]2C)ccc(F)c1F [Compound 523, (2R,3S,4S,5R)—N-(6-aminopyridin-3-yl)-3-(3,4-difluoro-2-methoxyphenyl)-4,5-dimethyl-5-(trifluoromethyl)tetrahydrofuran-2-carboxamide] | < 0.01 |
| CNc1ccc(NC(=O)[C@@H]2O[C@@](C)(C(F)(F)F)[C@@H](C)[C@H]2c2ccc(F)c(F)c2OC)cn1 [Compound 524, (2R,3S,4S,5R)-3-(3,4-difluoro-2-methoxy-phenyl)-4,5-dimethyl-N-[6-(methylamino)-3-pyridyl]-5-(trifluoromethyl)tetrahydrofuran-2-carboxamide] | 0.01 to 0.1 |
| COc1c([C@H]2[C@H](C(=O)Nc3ccc(NC(C)=O)nc3)O[C@@](C)(C(F)(F)F)[C@H]2C)ccc(F)c1F [Compound 525, (2R,3S,4S,5R)-N-(6-acetamido-3-pyridyl)-3-(3,4-difluoro-2-methoxy-phenyl)-4,5-dimethyl-5-(trifluoromethyl)tetrahydrofuran-2-carboxamide] | 0.01 to 0.1 |

More lines, now with the values ahead:

| IC50 [µM] | SMILES |
| --- | --- |
| 0.01 to 0.1 | COc1c([C@H]2[C@H](C(=O)Nc3ccc(NS(C)(=O)=O)nc3)O[C@@](C)(C(F)(F)F)[C@H]2C)ccc(F)c1F [Compound 526, (2R,3S,4S,5R)-3-(3,4-difluoro-2-methoxy-phenyl)-N-[6-(methanesulfonamido)-3-pyridyl]-4,5-dimethyl-5-(trifluoromethyl)tetrahydrofuran-2-carboxamide] |
| 0.01 to 0.1 | COc1c([C@H]2[C@H](C(=O)Nc3cncc(N4C(=O)CN(C)C[C@H]4C)c3)O[C@@](C)(C(F)(F)F)[C@H]2C)ccc(F)c1F [Compound 535, (2R,3S,4S,5R)-3-(3,4-difluoro-2-methoxyphenyl)-N-(5-((R)-2,4-dimethyl-6-oxopiperazin-1-yl)pyridin-3-yl)-4,5-dimethyl-5-(trifluoromethyl)tetrahydrofuran-2-carboxamide] |
| < 0.01 | Cc1nn(C(F)F)cc1NC(=O)[C@@H]1O[C@@](C)(C(F)(F)F)[C@@H](C)[C@H]1c1ccc(F)c(F)c1OCCO [Compound 536, (2R,3S,4S,5R)-3-(3,4-difluoro-2-(2-hydroxyethoxy)phenyl)-N-(1-(difluoromethyl)-3-methyl-1H-pyrazol-4-yl)-4,5-dimethyl-5-(trifluoromethyl)tetrahydrofuran-2-carboxamide] |
| < 0.01 | C[C@H]1[C@@H](c2ccc(F)c(F)c2OCCO)[C@H](C(=O)Nc2ccnc(CO)c2)O[C@@]1(C)C(F)(F)F [Compound 537, (2R,3S,4S,5R)-3-(3,4-difluoro-2-(2-hydroxyethoxy)phenyl)-N-(2-(hydroxymethyl)pyridin-4-yl)-4,5-dimethyl-5-(trifluoromethyl)tetrahydrofuran-2-carboxamide] |
| < 0.01 | Cc1nn(S(C)(=O)=O)cc1NC(=O)[C@@H]1O[C@@](C)(C(F)(F)F)[C@@H](C)[C@H]1c1ccc(F)c(F)c1OCCO [Compound 538, (2R,3S,4S,5R)-3-(3,4-difluoro-2-(2-hydroxyethoxy)phenyl)-4,5-dimethyl-N-(3-methyl-1-(methylsulfonyl)-1H-pyrazol-4-yl)-5-(trifluoromethyl)tetrahydrofuran-2-carboxamide] |
| 0.01 to 0.1 | C[C@H]1[C@@H](c2ccc(F)c(F)c2OCCO)[C@H](C(=O)Nc2cncnc2)O[C@@]1(C)C(F)(F)F [Compound 539, (2R,3S,4S,5R)-3-(3,4-difluoro-2-(2-hydroxyethoxy)phenyl)-4,5-dimethyl-N-(pyrimidin-5-yl)-5-(trifluoromethyl)tetrahydrofuran-2-carboxamide] |
| < 0.01 | C[C@H]1[C@@H](c2ccc(F)c(F)c2OCCO)[C@H](C(=O)Nc2ccnc(C(C)(C)O)c2)O[C@@]1(C)C(F)(F)F [Compound 540, (2R,3S,4S,5R)-3-(3,4-difluoro-2-(2-hydroxyethoxy)phenyl)-N-(2-(2-hydroxypropan-2-yl)pyridin-4-yl)-4,5-dimethyl-5-(trifluoromethyl)tetrahydrofuran-2-carboxamide] |
| 0.01 to 0.1 | C[C@H]1[C@@H](c2ccc(F)c(F)c2OCCO)[C@H](C(=O)Nc2ccn(C)c(=O)c2)O[C@@]1(C)C(F)(F)F [Compound 541, (2R,3S,4S,5R)-3-(3,4-difluoro-2-(2-hydroxyethoxy)phenyl)-4,5-dimethyl-N-(1-methyl-2-oxo-1,2-dihydropyridin-4-yl)-5-(trifluoromethyl)tetrahydrofuran-2-carboxamide] |
| ≥ 1 | C[C@H]1[C@@H](c2ccc(F)c(F)c2OCCO)[C@H](C(=O)Nc2cnc(N3CCOCC3)nc2)O[C@@]1(C)C(F)(F)F [Compound 542, (2R,3S,4S,5R)-3-(3,4-difluoro-2-(2-hydroxyethoxy)phenyl)-4,5-dimethyl-N-(2-morpholinopyrimidin-5-yl)-5-(trifluoromethyl)tetrahydrofuran-2-carboxamide] |
